Earlier results as cited in US8765195B2, “Methods and compositions for increasing sex steroids and growth hormones” (Quality IP Holdings, Inc., priority 2012, dated 2014).

Legend:
hGH = details: for effect on hGH: other amino acids, literature
[1] = subcutaneous injection of 0.06 IU, GH deficient subjects

Compound	effect on hGH (hGH)	also measured
N=C(N)NCCC[C@H](N)C(=O)O [arginine]		elevation of serum hGH levels (hGH; 30 g, males): 8.6 fold; increase of hGH levels (hGH; intravenous infusion of 183 mg/kg body weight, females): > 20 fold
N[C@@H](Cc1c[nH]cn1)C(=O)O [histidine]	marked increases in hGH	
NCCCC[C@H](N)C(=O)O [lysine]	marked increases in hGH	
CSCC[C@H](N)C(=O)O [methionine]	marked increases in hGH	
NCCC[C@H](N)C(=O)O [ornithine]	marked increases in hGH	
N[C@@H](Cc1ccccc1)C(=O)O [phenylalanine]	marked increases in hGH	
HGH: human growth hormone given by subcutaneous injection to GH deficient subjects		mean levels of GH reached [1]: 0.4 ng/mL
